Measured values: ChEMBL document CHEMBL1201862, “PubChem BioAssay data set” (2004)
Activity calls are given as the source filed them.

What was measured:
[1] = biological target: T1, Corticotropin-releasing factor receptor 2/Corticotropin-releasing factor-binding protein (Homo sapiens, UniProt P24387+Q13324); test: activators of CRF receptor 2 with binding protein – uHTS hits, confirmation (AID 602473); type: functional; conditions: read-out: EC50_Mean
T1 sequence (Q13324 whole entry): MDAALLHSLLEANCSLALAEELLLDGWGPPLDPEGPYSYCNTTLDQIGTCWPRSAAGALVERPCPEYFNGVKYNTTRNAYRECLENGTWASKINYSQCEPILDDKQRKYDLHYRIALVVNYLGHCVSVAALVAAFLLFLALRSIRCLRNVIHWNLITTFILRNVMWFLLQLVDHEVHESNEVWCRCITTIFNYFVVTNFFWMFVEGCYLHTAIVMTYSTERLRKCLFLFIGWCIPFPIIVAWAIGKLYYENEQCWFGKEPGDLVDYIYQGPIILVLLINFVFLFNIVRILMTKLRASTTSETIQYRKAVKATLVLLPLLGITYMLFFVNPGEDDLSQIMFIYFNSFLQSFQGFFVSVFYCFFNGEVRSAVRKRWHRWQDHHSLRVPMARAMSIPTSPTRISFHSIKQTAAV
T1 sequence (P24387 whole entry): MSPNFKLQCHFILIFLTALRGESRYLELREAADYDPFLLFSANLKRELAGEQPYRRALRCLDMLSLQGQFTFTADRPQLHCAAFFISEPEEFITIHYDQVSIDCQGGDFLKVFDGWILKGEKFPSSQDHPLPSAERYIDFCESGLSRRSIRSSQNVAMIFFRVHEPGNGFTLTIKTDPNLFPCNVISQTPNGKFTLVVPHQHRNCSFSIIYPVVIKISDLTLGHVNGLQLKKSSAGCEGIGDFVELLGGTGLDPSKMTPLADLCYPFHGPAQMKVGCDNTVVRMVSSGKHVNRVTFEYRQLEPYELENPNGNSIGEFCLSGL

[2] = biological target: T1, Corticotropin-releasing factor receptor 2/Corticotropin-releasing factor-binding protein; test: Dose Response confirmation of uHTS hits for small molecule antagonists of the CRF-binding protein and CRF-R2 receptor complex.; type: functional; conditions: read-out: IC50_Mean
[3] = Luminescence Cell-Based Dose Confirmation HTS to Identify Activators of 5'UTR Stem-Loop Driven Alpha-Synuclein mRNA Translation in H4 Neuroglioblastoma Cells. [Related pubchem assays: 1829 (Project Summary), 1814 (Primary HTS)]; type: functional
[4] = Luminescence Cell-Based Dose Response HTS to Identify Activators of Luciferase Translation or Activity in H4 […] Cells. [Related pubchem assays: 1829 (Project Summary), 1814 (Primary HTS)]; type: functional
H4 = test: Luminescence Cell-Based Dose Response HTS to Identify Activators of 5'UTR Stem-Loop Driven Prion Protein mRNA Translation in H4 Neuroglioblastoma Cells. [Related pubchem assays: 1829 (Project Summary), 1814 (Primary HTS)]; type: functional; conditions: Homo sapiens
Cytochrome P450 2D6 = Cytochrome P450 2D6 (Homo sapiens, UniProt P10635);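 also: CYP2D6 member of a cytochrome P450 panel assay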
Cytochrome P450 2C9 = Cytochrome P450 2C9 (Homo sapiens, UniProt P11712)
Cytochrome P450 2C19 = Cytochrome P450 2C19 (Homo sapiens, UniProt P33261); test: Cytochrome panel assay with activity outcomes. Panel member name: p450-cyp2c19 Compounds with AC50 equal or less than 10 uM are considered active; type: functional
Cytochrome P450 1A2 = biological target: T2, Cytochrome P450 1A2 (Homo sapiens, UniProt P05177);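 also: PubChem cytochrome P450 panel assay, CYP1A2 panel member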
T2 sequence (P05177 whole entry): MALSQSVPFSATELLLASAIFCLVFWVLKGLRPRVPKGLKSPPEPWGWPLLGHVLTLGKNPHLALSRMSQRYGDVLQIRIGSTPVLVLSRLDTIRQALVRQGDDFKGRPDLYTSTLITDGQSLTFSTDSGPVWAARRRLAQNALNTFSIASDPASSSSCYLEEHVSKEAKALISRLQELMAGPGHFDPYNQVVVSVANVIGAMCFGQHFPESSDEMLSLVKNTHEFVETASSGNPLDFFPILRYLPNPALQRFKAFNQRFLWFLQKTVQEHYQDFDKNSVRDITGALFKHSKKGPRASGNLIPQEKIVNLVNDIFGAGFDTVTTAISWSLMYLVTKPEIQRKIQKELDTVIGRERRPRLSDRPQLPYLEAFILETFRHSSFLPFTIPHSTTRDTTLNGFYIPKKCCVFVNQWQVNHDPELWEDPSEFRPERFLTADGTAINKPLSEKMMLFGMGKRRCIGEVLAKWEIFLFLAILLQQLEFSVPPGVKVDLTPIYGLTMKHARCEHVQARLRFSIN

Cytochrome P450 2D6, sequence (P10635 whole entry): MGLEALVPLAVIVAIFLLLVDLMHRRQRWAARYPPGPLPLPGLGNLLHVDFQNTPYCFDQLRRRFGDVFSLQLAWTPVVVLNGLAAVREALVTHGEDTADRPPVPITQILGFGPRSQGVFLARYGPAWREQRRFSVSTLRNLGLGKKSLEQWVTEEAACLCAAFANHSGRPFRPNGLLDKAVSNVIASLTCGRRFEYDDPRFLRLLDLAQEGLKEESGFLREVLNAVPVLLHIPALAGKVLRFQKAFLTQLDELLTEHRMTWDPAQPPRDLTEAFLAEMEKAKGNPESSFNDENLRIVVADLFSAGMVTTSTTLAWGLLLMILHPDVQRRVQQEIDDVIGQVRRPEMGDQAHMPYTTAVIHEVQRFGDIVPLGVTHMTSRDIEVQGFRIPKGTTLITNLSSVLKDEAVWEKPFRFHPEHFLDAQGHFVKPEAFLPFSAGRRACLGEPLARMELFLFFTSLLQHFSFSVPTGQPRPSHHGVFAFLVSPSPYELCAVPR
Cytochrome P450 2C19, sequence (P33261 whole entry): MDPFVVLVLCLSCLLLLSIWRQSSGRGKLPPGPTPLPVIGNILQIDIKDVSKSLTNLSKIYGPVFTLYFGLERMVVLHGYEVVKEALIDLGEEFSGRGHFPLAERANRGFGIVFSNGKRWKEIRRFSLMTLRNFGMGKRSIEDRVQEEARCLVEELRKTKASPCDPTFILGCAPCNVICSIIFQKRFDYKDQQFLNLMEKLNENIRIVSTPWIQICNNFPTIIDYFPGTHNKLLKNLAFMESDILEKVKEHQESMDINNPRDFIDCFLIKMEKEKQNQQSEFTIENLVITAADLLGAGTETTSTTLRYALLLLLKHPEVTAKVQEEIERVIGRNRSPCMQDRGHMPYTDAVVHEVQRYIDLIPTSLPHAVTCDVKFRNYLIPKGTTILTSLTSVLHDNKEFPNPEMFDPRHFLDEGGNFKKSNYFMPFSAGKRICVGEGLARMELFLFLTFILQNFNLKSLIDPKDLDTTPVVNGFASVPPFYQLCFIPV
Cytochrome P450 2C9, sequence (P11712 whole entry): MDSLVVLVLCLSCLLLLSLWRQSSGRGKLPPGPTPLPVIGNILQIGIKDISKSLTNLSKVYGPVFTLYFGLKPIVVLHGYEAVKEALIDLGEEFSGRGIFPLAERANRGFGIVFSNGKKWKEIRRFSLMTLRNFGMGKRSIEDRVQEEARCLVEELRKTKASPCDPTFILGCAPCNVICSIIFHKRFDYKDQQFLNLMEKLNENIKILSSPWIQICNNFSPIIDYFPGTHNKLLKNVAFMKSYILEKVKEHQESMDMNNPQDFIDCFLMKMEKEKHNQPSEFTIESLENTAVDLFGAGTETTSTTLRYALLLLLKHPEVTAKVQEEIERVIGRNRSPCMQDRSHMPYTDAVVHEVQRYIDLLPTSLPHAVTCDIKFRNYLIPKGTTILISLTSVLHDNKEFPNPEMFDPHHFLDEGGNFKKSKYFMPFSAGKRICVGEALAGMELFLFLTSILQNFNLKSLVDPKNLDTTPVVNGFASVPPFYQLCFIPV

CC(N=C1NS(=O)(=O)c2ccccc21)C(=O)N1CCc2ccccc2C1 (configuration not stated)
EC50 [1]: > 53 µM (inactive) | IC50 [2]: > 47.1 µM (inactive)

COC(=O)c1ccc(C2OCC(C)(C)CO2)cc1
EC50 [3]: > 120 µM (not active) | EC50 [4]: 35.1 µM (active) | EC50 (H4): 24.9 µM (active)

Cc1ccc(S(=O)(=O)NN=C(S)Nc2cccc(F)c2)cc1
EC50 [1]: > 53 µM (inactive) | IC50 [2]: > 47.1 µM (inactive)

Cc1noc(C)c1-c1nc(N2CCN(C)CC2)c2ccccc2n1
AC50 (Cytochrome P450 2D6): 39.8 µM (inconclusive)

C=CC[C@@H]1C=C[C@H](Oc2ccc(C)cc2)[C@H](COC(=O)NCc2cccc3ccccc23)O1
AC50 (Cytochrome P450 2D6): 7.94 µM (inconclusive) | AC50 (Cytochrome P450 2C9): 3.98 µM (inconclusive)

CSc1ccccc1NC(=O)c1cc(-c2cccs2)on1
EC50 [3]: 55.7 µM (active) | EC50 [4]: > 120 µM (not active) | EC50 (H4): 17.9 µM (active)

O=C(CSc1nnc(Cn2nnc3ccccc32)o1)Nc1cccc(Cl)c1
AC50 (Cytochrome P450 2C9): 15.8 µM (inconclusive) | AC50 (Cytochrome P450 2C19; read-out: AC50): 22.4 µM (inconclusive)

CC(=O)c1ccc(N(C(=O)Cn2nnc3ccccc32)C(C(=O)NCc2ccccc2)c2ccccn2)cc1 (configuration not stated)
EC50 [3]: > 120 µM (not active) | EC50 [4]: 8.14 µM (active) | EC50 (H4): > 120 µM (not active)

O=C(Nc1ccccc1N1CCOCC1)c1ccc([N+](=O)[O-])cc1
AC50 (Cytochrome P450 2D6): 15.8 µM (inconclusive) | AC50 (Cytochrome P450 2C9): 10 µM (inconclusive)

COC(=O)[C@@]1(Cc2ccc(OC)cc2)[C@H]2c3cc(C(=O)N4CCCC4)n(Cc4c(CO)ncc(C)c4O)c3C[C@H]2CN1C(=O)c1ccccc1
AC50 (Cytochrome P450 2D6): 20 µM (inconclusive) | AC50 (Cytochrome P450 1A2): 25.1 µM (inconclusive)

COc1ccc(CNC(=O)CN2CCN(S(=O)(=O)c3cc(Br)ccc3Br)CC2)cc1OC
EC50 [1]: > 53 µM (inactive) | IC50 [2]: > 47.1 µM (inactive)

Cc1cc(OCC(=O)C(C)(C)C)c2c(C)c(C)c(=O)oc2c1
EC50 [1]: > 53 µM (inactive) | IC50 [2]: > 47.1 µM (inactive)

Cc1ccc(Oc2nn[nH]n2)cc1
EC50 [3]: > 120 µM (not active) | EC50 [4]: > 120 µM (not active) | AC50 (Cytochrome P450 2C9): 7.08 µM (inconclusive) | EC50 (H4): > 120 µM (not active) | AC50 (Cytochrome P450 2C19): inconclusive

Cc1cc(NC(=O)CSc2nc3c(C)cccc3cc2C#N)no1
EC50 [3]: 47.9 µM (active) | EC50 [4]: > 120 µM (not active) | EC50 (H4): 16.1 µM (active)

Cc1cc(NC(=O)Cn2nc3c(cc2=O)CCCC3)ccc1Br
EC50 [1]: > 53 µM (inactive) | IC50 [2]: > 47.1 µM (inactive)

COc1ccc(N2CCN(CCCNC(=O)CN3CCN(Cc4ccccc4C)C3=O)CC2)cc1
EC50 [1]: > 53 µM (inactive) | IC50 [2]: > 47.1 µM (inactive)

Clc1ccc(-c2csc(N3CCC(c4ccccc4)C3)n2)cc1 (configuration not stated)
EC50 [3]: 18.5 µM (active) | EC50 [4]: 25.7 µM (active) | EC50 (H4): 31.5 µM (active)

CCOC(=O)c1c(NC(=O)CCCN2CCOCC2)sc2c1CC(C)(C)OC2
AC50 (Cytochrome P450 2C9): 0.282 µM (inconclusive) | AC50 (Cytochrome P450 2C19; read-out: AC50): 39.8 µM (inconclusive)

Nn1c(SCc2ccccc2)nnc1C1CCCCC1
EC50 [3]: 25.5 µM (active) | EC50 [4]: 10.6 µM (active) | EC50 (H4): 21 µM (active)

O=C(CSCc1cccc(F)c1)N1CCN(c2ccccc2)CC1
EC50 [3]: 0.47 µM (active) | EC50 [4]: 6.73 µM (active) | EC50 (H4): > 120 µM (not active)

Cc1ccc(N/C=C(/C#N)c2ccsc2)cc1
EC50 [3]: 46.7 µM (active) | EC50 [4]: 52.3 µM (active) | EC50 (H4): 68.4 µM (active)

O=C(Nc1ccccc1)N1CCCC2(CCN(C(=O)c3csnn3)CC2)C1
AC50 (Cytochrome P450 2D6): 39.8 µM (inconclusive) | AC50 (Cytochrome P450 1A2): 25.1 µM (inconclusive) | AC50 (Cytochrome P450 2C19; read-out: AC50): 3.98 µM (inconclusive)

O=C(NCC1CCCO1)C(c1cccnc1)N(C(=O)Cc1cccs1)c1ccccc1 (configuration not stated)
AC50 (Cytochrome P450 2D6): 15.8 µM (inconclusive) | AC50 (Cytochrome P450 2C9): 15.8 µM (inconclusive) | AC50 (Cytochrome P450 2C19; read-out: AC50): 17.8 µM (inconclusive)

Cc1ccc(Oc2ccccc2/C=C2\SC(=O)N(C)C2=O)cc1
AC50 (Cytochrome P450 2D6): 8.91 µM (inconclusive)

Oc1c(CN2CCOCC2)cc(-c2ccccc2)cc1CN1CCOCC1
AC50 (Cytochrome P450 2C9): 28.2 µM (inconclusive) | AC50 (Cytochrome P450 2C19; read-out: AC50): 11.2 µM (inconclusive)

CCCCCC/C(C)=C1/SC(=S)NC1=O
AC50 (Cytochrome P450 2D6): 28.2 µM (inconclusive)

COC(=O)C1CSc2[nH]c(=O)sc2C1c1ccc(O)c(OC)c1 (configuration not stated)
EC50 [1]: > 53 µM (inactive) | IC50 [2]: > 47.1 µM (inactive)

Cc1cc2c(nc1C)CCCCN2C[C@H](O)CN1CCCc2nc(-c3ccc(Br)cc3)ccc21
AC50 (Cytochrome P450 2D6): 3.16 µM (inconclusive) | AC50 (Cytochrome P450 2C9): 3.98 µM (inconclusive)

Nc1c(C(=O)N2CCCCCC2)oc2ccccc12
EC50 [1]: > 53 µM (inactive) | IC50 [2]: > 47.1 µM (inactive)

CN(Cc1ccccc1)C(=O)c1cccc(NC(=O)Cc2ccc(NC(=O)C3CCCN(C(=O)CCc4ccccc4)C3)cc2)c1 (configuration not stated)
EC50 [1]: > 53 µM (inactive) | IC50 [2]: > 47.1 µM (inactive)

O=C(CSc1nc2ccccc2c(=O)n1NC(=O)Cc1ccccc1)NCc1ccccc1Cl
AC50 (Cytochrome P450 2D6): 2.82 µM (inconclusive)

CC1=CC(C)(C(Cl)(Cl)Cl)C(C)=CC1=NO (configuration not stated)
EC50 [1]: > 53 µM (inactive) | IC50 [2]: > 47.1 µM (inactive)

CCOc1ccccc1NC(=O)C1CCC(=O)N1S(=O)(=O)c1ccc(C)cc1 (configuration not stated)
EC50 [1]: > 53 µM (inactive) | IC50 [2]: > 47.1 µM (inactive)

Cc1ccccc1N(CC(=O)N1CCN(Cc2ccccc2)CC1)S(C)(=O)=O
EC50 [1]: > 53 µM (inactive) | IC50 [2]: > 47.1 µM (inactive)

C/C(=N/C1CC1)C1=C(O)c2ccccc2C1=O
EC50 [3]: > 120 µM (not active) | EC50 [4]: 20.2 µM (active) | EC50 (H4): 6.75 µM (active)

O=[N+]([O-])c1cccc(/N=C/C=C(/O)c2ccco2)c1
EC50 [3]: 1.14 µM (active) | EC50 [4]: 17 µM (active) | EC50 (H4): > 120 µM (not active)

CCC(=C(CC)c1ccc(O)cc1)c1ccc(O)cc1 [DIETHYLSTILBESTROL]
AC50 (Cytochrome P450 2D6): 15.8 µM (inconclusive) | AC50 (Cytochrome P450 1A2): 15.8 µM (active) | AC50 (Cytochrome P450 2C9): 12.6 µM (active) | AC50 (Cytochrome P450 2C19; read-out: AC50): 15.8 µM (inconclusive)
